Experimental data: PubChem BioAssay AID330 (DTP/NCI, 2004)
Values joined by “and” are separate entries in the source; they are usually repeats but may differ in a detail not shown here. Equal entries are not always repeated. Inconclusive results and toxic doses are left out. The calls were made as follows: active = survival T/C of 150% or more; inactive = T/C below 125% in these data.

Test system: P388 leukemia ip, CD2F1 mice, survival T/C
Assay: NCI In Vivo Anticancer Drug Screen. Data for tumor model P388 Leukemia (intraperitoneal) in CD2F1 (CDF1) mice
Details: endpoint: median survival time, higher = longer survival
Procedure, shortened: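 Mice carrying the transplanted tumor received test compound or vehicle. Survival was recorded in each group, and the value is the treated-group measurement divided by that of the vehicle-treated control group.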

[1] = dose: 50.0 mg/kg/injection, schedule: Q01DX009 (ip), vehicle: saline with Tween-80
[2] = dose: 100.0 mg/kg/injection, schedule: Q01DX009 (ip), vehicle: saline with Tween-80
[3] = dose: 50.0 mg/kg/injection, schedule: Q01DX009 (ip), vehicle: Klucel (hydroxypropylcellulose) (HPC)
[4] = dose: 100.0 mg/kg/injection, schedule: Q01DX009 (ip), vehicle: Klucel (hydroxypropylcellulose) (HPC)
[5] = dose: 200.0 mg/kg/injection, schedule: Q01DX009 (ip), vehicle: saline with Tween-80
[6] = dose: 50.0 mg/kg/injection, schedule: Q01DX009 (ip), vehicle: saline
[7] = dose: 60.0 mg/kg/injection, schedule: Q01DX005 (ip), vehicle: saline with Tween-80
[8] = dose: 120.0 mg/kg/injection, schedule: Q01DX005 (ip), vehicle: saline with Tween-80
[9] = dose: 240.0 mg/kg/injection, schedule: Q01DX005 (ip), vehicle: saline with Tween-80
[10] = dose: 100.0 mg/kg/injection, schedule: Q01DX005 (ip), vehicle: Klucel (hydroxypropylcellulose) (HPC)
[11] = dose: 100.0 mg/kg/injection, schedule: Q01DX009 (ip), vehicle: saline
[12] = dose: 200.0 mg/kg/injection, schedule: Q01DX009 (ip), vehicle: saline

Measured: T/C

CC(C)(C)c1ccnc(N=C2N=C(Nc3cc(C(C)(C)C)ccn3)c3ccccc32)c1
inactive: [1] 89 % of control | [2] 89 % of control

CC(C)(C)CC(C)(C)c1ccc(OCCOc2ccc(C(=O)NCCNC(=O)c3ccc4ccccc4c3O)cc2N)cc1
inactive: dose: 6.25 mg/kg/injection, schedule: Q01DX009 (ip), vehicle: Klucel (hydroxypropylcellulose) (HPC) 102 % of control | dose: 12.5 mg/kg/injection, schedule: Q01DX009 (ip), vehicle: Klucel (hydroxypropylcellulose) (HPC) 114 % of control | dose: 25.0 mg/kg/injection, schedule: Q01DX009 (ip), vehicle: Klucel (hydroxypropylcellulose) (HPC) 102 % of control | [3] 98 % of control | [4] 102 % of control

CCCCOB(CI)OCCCC
inactive: dose: 6.25 mg/kg/injection, schedule: Q04DX003 (ip), vehicle: saline 110 % of control | dose: 12.5 mg/kg/injection, schedule: Q04DX003 (ip), vehicle: saline 100 % of control | dose: 25.0 mg/kg/injection, schedule: Q04DX003 (ip), vehicle: saline 110 % of control

CS(=O)(=O)N1OC1c1ccccc1 (stereo unspecified)
inactive: dose: 60.0 mg/kg/injection, schedule: Q01DX005 (ip), vehicle: Klucel (hydroxypropylcellulose) (HPC) 95 % of control | dose: 120.0 mg/kg/injection, schedule: Q01DX005 (ip), vehicle: Klucel (hydroxypropylcellulose) (HPC) 100 % of control

Cc1ccc(C(=N)c2ccccc2Cc2cccc3ccccc23)c(C)c1
inactive: [1] 92 % of control | [2] 94 % of control | [5] 96 % of control

CN(C)c1nc(N)c(N=O)c(=O)[nH]1
inactive: dose: 12.5 mg/kg/injection, schedule: Q01DX009 (ip), vehicle: saline with Tween-80 104 % of control | dose: 25.0 mg/kg/injection, schedule: Q01DX009 (ip), vehicle: saline with Tween-80 94 % of control | [1] 94 % of control | [6] 87 % of control | dose: 50.0 mg/kg/injection, schedule: Q04DX003 (ip), vehicle: saline with Tween-80 94 % of control | dose: 100.0 mg/kg/injection, schedule: Q04DX003 (ip), vehicle: saline with Tween-80 93 % of control

Cc1cc(C(=O)NCCc2ccc(S(=O)(=O)NC(=O)NCC3CC4CCC3C4)cc2)no1 (stereo unspecified)
inactive: dose: 50.0 mg/kg/injection, schedule: Q01DX001 (ip), vehicle: Klucel (hydroxypropylcellulose) (HPC) 106 % of control | dose: 100.0 mg/kg/injection, schedule: Q01DX001 (ip), vehicle: Klucel (hydroxypropylcellulose) (HPC) 97 % of control | dose: 200.0 mg/kg/injection, schedule: Q01DX001 (ip), vehicle: Klucel (hydroxypropylcellulose) (HPC) 94 % of control

COC(=O)c1c2cccc(C)c2nc2c(C)cccc12
inactive: dose: 50.0 mg/kg/injection, schedule: Q01DX005 (ip), vehicle: saline with Tween-80 107 % of control | dose: 100.0 mg/kg/injection, schedule: Q01DX005 (ip), vehicle: saline with Tween-80 107 % of control | dose: 200.0 mg/kg/injection, schedule: Q01DX005 (ip), vehicle: saline with Tween-80 100 % of control

O=S(=O)(C(Br)S(=O)(=O)C(F)(F)C(F)(F)C(F)(F)C(F)(F)F)C(F)(F)C(F)(F)C(F)(F)C(F)(F)F
inactive: dose: 25.0 mg/kg/injection, schedule: Q01DX001 (ip), vehicle: saline 95 % of control | dose: 50.0 mg/kg/injection, schedule: Q01DX001 (ip), vehicle: saline 95 % of control | dose: 100.0 mg/kg/injection, schedule: Q01DX001 (ip), vehicle: saline 100 % of control and 101 % of control

CC1[C@@]2(O[C@@H]3C=C4C5CCC6Cc7nc8c(nc7C[C@@]6(C)C5C[C@H](O)[C@@]4(C)[C@]13O)CC1CCc3c(cc4c5c3C(O)C[C@H]5[C@@H](C)C3(O4)OC(C)(C)CC3O)[C@]1(C)C8)O[C@@](C)(CO)C[C@@H]2O (stereo partly specified)
inactive: dose: 12.5 micrograms/kg/injection, schedule: Q01DX009 (ip), vehicle: saline + alcohol 109 % of control | dose: 25.0 micrograms/kg/injection, schedule: Q01DX009 (ip), vehicle: saline + alcohol 107 % of control | dose: 100.0 micrograms/kg/injection, schedule: Q01DX009 (ip), vehicle: saline + alcohol 98 % of control

CCn1cc(C(=O)O)c(=O)c2cc(Cl)c(-n3cccc3)cc21
inactive: [7] 95 % of control | [8] 99 % of control | [9] 94 % of control

COc1ccccc1N=NNc1ccc(S(=O)(=O)NC(C)=O)cc1
inactive: dose: 50.0 mg/kg/injection, schedule: Q01DX005 (ip), vehicle: Klucel (hydroxypropylcellulose) (HPC) 107 % of control | [10] 114 % of control

O=[N+]([O-])c1cc(NC(=S)SCc2ccccc2)ccc1Cl
inactive: [6] 108 % of control | dose: 50.0 mg/kg/injection, schedule: Q01DX009 (ip), vehicle: suspension in saline 92 % of control | [11] 115 % of control | [12] 108 % of control | dose: 200.0 mg/kg/injection, schedule: Q01DX009 (ip), vehicle: suspension in saline 92 % of control

Cc1cc(C)c(S(=O)(=O)n2ccnc2)c(C)c1
inactive: dose: 25.0 mg/kg/injection, schedule: Q01DX009 (ip), vehicle: saline 111 % of control | [6] 97 % of control | [11] 103 % of control | [12] 106 % of control

CC(C)C(NC(=O)CCNC(=O)OCc1ccccc1)C(=O)O (stereo unspecified)
inactive: [10] 102 % of control | dose: 200.0 mg/kg/injection, schedule: Q01DX005 (ip), vehicle: Klucel (hydroxypropylcellulose) (HPC) 100 % of control | dose: 400.0 mg/kg/injection, schedule: Q01DX005 (ip), vehicle: Klucel (hydroxypropylcellulose) (HPC) 96 % of control

Cc1cccc([NH-])n1.Cc1cccc([NH-])n1.Cc1cccc([NH-])n1.Cc1cccc([NH-])n1.[Cl][Rh][Cl]
inactive: dose: 6.25 mg/kg/injection, schedule: Q01DX009 (ip), vehicle: DMSO 101 % of control | dose: 12.5 mg/kg/injection, schedule: Q01DX009 (ip), vehicle: DMSO 99 % of control | dose: 25.0 mg/kg/injection, schedule: Q01DX009 (ip), vehicle: DMSO 101 % of control | [6] 101 % of control

O=C1C=CC2=Cc3ccccc3CN12
inactive: [7] 100 % of control | [8] 100 % of control | [9] 100 % of control

COc1cc2c(cc1OC(C)=O)C(=O)CCC=C2
inactive: dose: 33.0 mg/kg/injection, schedule: Q04DX003 (ip), vehicle: saline 100 % of control | dose: 50.0 mg/kg/injection, schedule: Q04DX003 (ip), vehicle: saline 104 % of control | dose: 75.0 mg/kg/injection, schedule: Q04DX003 (ip), vehicle: saline 112 % of control | dose: 400.0 mg/kg/injection, schedule: Q04DX003 (ip), vehicle: saline 120 % of control

CS1(=O)=NC(=NC#N)c2ccccc21 (stereo unspecified)
inactive: [3] 101 % of control | [4] 94 % of control

Sc1nc2ccccc2s1.Sc1nc2ccccc2s1.Sc1nc2ccccc2s1.Sc1nc2ccccc2s1.[Cl][Rh][Cl]
inactive: [1] 93 % of control | [2] 101 % of control | [5] 101 % of control
